Data on one compound can be found in ChEMBL document CHEMBL1759974, “Discovery of triazine-benzimidazoles as selective inhibitors of mTOR” (Bioorg Med Chem Lett, 2011).

Activity calls are given as the source filed them. The calls are words filed in the database; no cut-off is given here.

The subject of one assay is BT-474. The assay is described as follows: Antiproliferative activity against human BT474 cells harboring HER2/PI3K/p53 mutant gene at 1 uM after 72 hrs by Ambit assay in presence of 10% serum. It is filed as functional, cell-based. As to conditions: BT-474, 72 h.
The next assay has as its system UACC-893. The assay is described as follows: Antiproliferative activity against human UACC-893 cells harboring HER2/PI3K/p53 mutant gene at 1 uM after 72 hrs by Ambit assay in presence of 10% serum. The format is functional, cell-based. The following applies: UACC-893, 72 h.
In another assay the test system is A-375. The assay is described as follows: Antiproliferative activity against human A375 cells harboring BRAF gene mutation/amplification at 1 uM after 72 hrs by Ambit assay in presence of 10% serum. The format is functional, cell-based. The following applies: A-375, 72 h.
In another assay the test system is A549. The assay is described as follows: Antiproliferative activity against human A549 cells harboring KRAS/LKB1 gene mutation/amplification at 1 uM after 72 hrs by Ambit assay in presence of 10% serum. It is filed as functional, cell-based. As to conditions: A549, 72 h.
The test system of a further assay is Calu-6. The assay is described as follows: Antiproliferative activity against human Calu6 harboring KRAS gene mutation/amplification at 1 uM after 72 hrs by Ambit assay in presence of 10% serum. The format is functional, cell-based. The following applies: Calu-6, 72 h.
The test system of another assay is CAL-51. Nature of the assay: Antiproliferative activity against human CAL51 harboring PI3K/PTEN gene mutation/amplification at 1 uM after 72 hrs by Ambit assay in presence of 10% serum. It is filed as functional, cell-based. As to conditions: CAL-51, 72 h.
The subject of another assay is COLO-829. Nature of the assay: Antiproliferative activity against human COLO829 harboring BRAF/PTEN gene mutation/amplification at 1 uM after 72 hrs by Ambit assay in presence of 10% serum. The format is functional, cell-based. As to conditions: COLO-829, 72 h.
The next assay concerns DU-4475. The assay is described as follows: Antiproliferative activity against human DU4475 harboring BRAF/APC/RB gene mutation/amplification at 1 uM after 72 hrs by Ambit assay in presence of 10% serum. The following applies: DU-4475, 72 h. It is filed as functional, cell-based.
Another assay has as its system HCC1954. Nature of the assay: Antiproliferative activity against human HCC1954 harboring PI3K/p53 gene mutation/amplification at 1 uM after 72 hrs by Ambit assay in presence of 10% serum. The format is functional, cell-based. As to conditions: HCC1954, 72 h.
A further assay concerns MCF7. Nature of the assay: Antiproliferative activity against human MCF7 harboring PI3K gene mutation/amplification at 1 uM after 72 hrs by Ambit assay in presence of 10% serum. The format is functional, cell-based. As to conditions: MCF7, 72 h.
Another assay has as its system MDA-MB-231. Nature of the assay: Antiproliferative activity against human MDA-MB-231 harboring KRAS/BRAF/p53 gene mutation/amplification at 1 uM after 72 hrs by Ambit assay in presence of 10% serum. It is filed as functional, cell-based. As to conditions: MDA-MB-231, 72 h.
The subject of a further assay is MDA-MB-468. Nature of the assay: Antiproliferative activity against human MDA-MB-468 harboring PTEN/EGFR/p53 gene mutation/amplification at 1 uM after 72 hrs by Ambit assay in presence of 10% serum. The format is functional, cell-based. The following applies: MDA-MB-468, 72 h.
The test system of another assay is NCI-H2009. Nature of the assay: Antiproliferative activity against human NCI-H2009 harboring KRAS/RB/p53 gene mutation/amplification at 1 uM after 72 hrs by Ambit assay in presence of 10% serum. The format is functional, cell-based. The following applies: NCI-H2009, 72 h.
A further assay relates to NCI-H1975. Nature of the assay: Antiproliferative activity against human NCI-H1975 harboring PI3K/EGFR/p53 gene mutation/amplification at 1 uM after 72 hrs by Ambit assay in presence of 10% serum. The format is functional, cell-based. As to conditions: NCI-H1975, 72 h.
The subject of the next assay is NCI-H460. The assay is described as follows: Antiproliferative activity against human NCI-H460 harboring PI3K/KRAS/LKB1 gene mutation/amplification at 1 uM after 72 hrs by Ambit assay in presence of 10% serum. The format is functional, cell-based. As to conditions: NCI-H460, 72 h.
In another assay the test system is NCI-H82. Nature of the assay: Antiproliferative activity against human NCI-H82 harboring CMYC/RB gene mutation/amplification at 1 uM after 72 hrs by Ambit assay in presence of 10% serum. It is filed as functional, cell-based. The following applies: NCI-H82, 72 h.
Another assay deals with SK-MEL-28. Nature of the assay: Antiproliferative activity against human SK-MEL-28 harboring BRAF gene mutation/amplification at 1 uM after 72 hrs by Ambit assay in presence of 10% serum. As to conditions: SK-MEL-28, 72 h. The format is functional, cell-based.
Assay [1] can be described thus: Antiproliferative activity against human U87MG harboring PTEN gene mutation/amplification at 1 uM after 72 hrs by Ambit assay in presence of 10% serum. The following applies: U-87 MG. It is filed as functional, U-87MG ATCC.
For assay [2], the target named is TGF-beta receptor type-2 (Homo sapiens) (UniProt P37173). Nature of the assay: Inhibition of TGFBR2 assessed as inhibition of TGFbeta induced SMAD phosphorylation at 1 uM relative to control.
Assay [3] has the same target. The assay is described as follows: Inhibition of TGFBR2 assessed as inhibition of TGFbeta induced SMAD phosphorylation at 10 uM relative to control.

For orientation: IC50 means the point on the concentration scale where inhibition reaches its midpoint. Broadly, the inhibition is how much of the control response was suppressed.

Sequence of TGF-beta receptor type-2 (Homo sapiens) (P37173 whole entry): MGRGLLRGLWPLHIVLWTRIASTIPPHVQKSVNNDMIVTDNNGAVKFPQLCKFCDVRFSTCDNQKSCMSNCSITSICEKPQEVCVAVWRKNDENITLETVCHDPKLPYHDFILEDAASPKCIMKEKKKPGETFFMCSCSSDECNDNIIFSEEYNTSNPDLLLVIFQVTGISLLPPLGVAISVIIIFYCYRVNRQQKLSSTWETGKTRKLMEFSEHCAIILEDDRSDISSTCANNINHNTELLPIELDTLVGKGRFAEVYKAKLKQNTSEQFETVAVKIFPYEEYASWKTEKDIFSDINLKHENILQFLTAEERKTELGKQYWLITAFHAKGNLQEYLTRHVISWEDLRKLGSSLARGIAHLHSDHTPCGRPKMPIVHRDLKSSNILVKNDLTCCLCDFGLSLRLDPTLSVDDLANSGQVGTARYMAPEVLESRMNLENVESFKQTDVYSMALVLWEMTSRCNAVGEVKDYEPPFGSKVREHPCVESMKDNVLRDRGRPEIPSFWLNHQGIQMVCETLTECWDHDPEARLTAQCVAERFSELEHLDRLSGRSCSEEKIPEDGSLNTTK

Regarding `Cc1nc(NCC#N)nc(-n2c(Nc3cc[nH]n3)nc3ccccc32)n1`, the IC50 with BT-474 is 200 nM; in the assay with UACC-893 it was 140 nM; with A-375, 380 nM; in the assay with A549, 430 nM; with Calu-6, 590 nM; in the assay on CAL-51, 320 nM. Also, the IC50 in the assay with COLO-829 stood at 340 nM; with DU-4475, 530 nM; with HCC1954, 220 nM; in the assay with MCF7, 540 nM; in the assay with MDA-MB-231 it was 270 nM; in the assay with MDA-MB-468, 690 nM. Besides, the IC50 in the assay on NCI-H2009 is 420 nM; in the assay on NCI-H1975, 600 nM; in the assay on NCI-H460, 460 nM; in the assay on NCI-H82 it was 430 nM; in the assay on SK-MEL-28 it was 470 nM; in assay [1] it was 350 nM. Further, in [2], the inhibition stood at 17%. Also, the inhibition entry in assay [3] is “inactive”.
